The source of these data is US9061012B2, “Uses of DGAT1 inhibitors” (Novartis AG, priority 2010, dated 2015).

The test system of series [1] is patients with chylomicronemia (both FCS and Type V). As to the kind of experiment: Open-label clinical study, safety and tolerability and overall triglyceride effect in patients with chylomicronemia (FCS and Type V). It counts as in vivo. Here is the method: (§1) An open-label, multiple-dose, parallel group clinical study is carried out to assess the safety, tolerability, pharmacokinetics and pharmacodynamics of compound 1 in twelve patients with chylomicronemia (six with FCS and six with Type V).
(§2) The safety and tolerability of multiple doses of Compound 1 in patients with chylomicronemia (both FCS and Type V), and the effect of oral Compound 1 on fasting and postprandial plasma triglycerides in the study population are determined using the following method.
(§3) The clinical study is an open-label, out-patient parallel group study to assess the safety, tolerability, pharmacokinetics and pharmacodynamics of Compound 1 administered once daily for 21 days in patients with chylomicronemia (both FCS and Type V). Six patients of each phenotype are enrolled and treated with Compound 1 at 20 mg per day for 21 days. Following a screening period of up to 90 days, eligible patients undergo a 7-day baseline period, a 21-day treatment period, a 14-day follow-up period after last treatment day and a study completion evaluation.
The enrolling criteria for Type V patients is a screening baseline of greater than or equal to 1000 mg/dL fasting triglycerides (TG), and a documented history of heterozygous lipoprotein lipase deficiency. […]

A further series deals with STZ rats. As to the kind of experiment: Plasma triglycerides after Intralipid in a model of severe hypertriglyceridemia (STZ, high fat diet). It counts as in vivo, rat (male Sprague Dawley). The conditions noted are these: for Plasma TG at 2 hrs / Plasma TG at 4 hrs: 10 mpk oral gavage 30 min before Intralipid 10 ml/kg; for Plasma TG at 2 hrs: 2 hrs post-Intralipid; for Plasma TG at 2 hrs / Plasma TG at 4 hrs / Pre-dose TG: mean ± SEM; for Plasma TG at 4 hrs / Plasma TGs at 4 hrs compared between groups: 4 hrs post-Intralipid; for Pre-dose TG: baseline immediately before dosing, 6 h fasted, group later given 10 mpk oral, n=10/group. Here is the method:
Male Sprague Dawley (SD) rats at 12 wks of age were studied. Orlistat (04139-100MG) and Streptozotocin (S0130-1G) were purchased from Sigma (St. Louis, Mo.).
Compounds were suspended in vehicle (0.5% methyl cellulose with 0.1% Tween-80) to achieve a dosing volume of 4 ml/kg and dosing concentration of 10 mpk for both compound 1 and orlistat (Sigma, St. Louis, Mo.).
Two weeks into consuming a 60% high fat diet, animals were treated with a 40 mpk dose of streptozotocin (STZ given intravenously (iv) in 10 mM sodium citrate in normal saline, pH=4.5). Nine days later, animals were assigned to three experimental groups (vehicle, compound 1 at 10 mpk, or orlistat at 10 mpk) on the basis of 6 hr fasted TG concentrations (n=10/group). On the morning of the study, 14 days after animals were placed in experimental groups, animals were fasted for 6 hours, after which studies commenced at 1100 hr with baseline blood collected by tail nick into ethylenediaminetetraacetic acid-lined tubes (Sarstedt, Nümbrecht, Germany).
The baseline blood sample (80 μl) was collected immediately prior to administering compounds. Rats were orally gavaged with drug or vehicle (4 ml/kg) beginning at 1100 hrs. Thirty minutes later, Intralipid was orally gavaged at 10 ml/kg to all rats, representing t=0 hr. At 2 and 4 hrs post-Intralipid, tail nick blood samples were taken to assess plasma TGs.
Blood samples remained on ice following collection for no longer than 30 min prior to centrifugation (10 min, 4° C., 1000 g) and resulting plasma was aliquoted for plasma TG analysis.
Plasma TGs (triglycerides) (corrected for glycerol) were compared on an absolute basis, as a percent change from baseline (% TGs), and as area above baseline over 0-4 hours (AABtg0-4-h) using the Trapezoidal rule. Percent change from baseline was calculated as follows: % change from baseline=([TGs] at 2 or 4 hrs)−([TGs] at baseline)*100 [TGs] at baseline Statistical Analyses
Data are reported as means±SEM. One-way ANOVA (analysis of variance) assessed between-group differences when any comparisons that were not time-dependent were made (body weight, pre-study plasma TGs, AABtg0-4-h). To assess that the Intralipid bolus produced a significant increase in plasma TGs in the vehicle group, a repeated measures (RM) one-way ANOVA was used with Tukey's posthoc test applied to compare plasma parameter means at 2 and 4 hrs vs. pre-treatment concentrations. RM two-way ANOVA was used to assess the significance of the treatment-by-time interaction for plasma parameters (TGs and % TGs) followed by Bonferroni's t-test to compare differences among the groups. Outliers were determined using the Grubb's Test for Outliers. Significance was set at P≦0.05.

The next series deals with Triton rat. The series is described as follows: Plasma triglycerides after Intralipid and Triton WR-1339 in a model of impaired triglyceride clearance. It counts as in vivo, rat (male Sprague Dawley). The conditions noted are these: for Plasma TG at 90 min: 90 min after Triton WR-1339 100 mg/kg i.v.; for Plasma TG at 90 min / Plasma TG at 120 min / Pre-Triton TG: compound 1 at 10 mg/kg by gavage, mean ± SEM; for Plasma TG at 120 min: 120 min after Triton WR-1339 100 mg/kg i.v.; for Pre-Triton TG: before Triton WR-1339, Intralipid 10 mL/kg 30 min later. How it is done:
Male Sprague Dawley rats were studied at 9 and 10 weeks of age and were overnight fasted the night prior to study. The compound treated groups received a suspension of compound 1 at 10 mg/kg administered in 0.5% methyl cellulose with 0.1% Tween-80 at […]. Vehicle treated groups were dosed in a volume-matched manner with 0.5% methyl cellulose with 0.1% Tween-80. Vehicle and compounds were made up in a single batch the day before the start of each study. Orlistat was administered as a suspension in 0.5% methyl cellulose with 0.1% Tween-80 at 4 mL/kg. Intralipid was used as a high fat meal. Triton WR-1339 (10% weight: weight) was dissolved in normal saline and dosed at 100 mg/kg (i.v.) at a volume of 1 mL/kg. A baseline blood sample was collected by tail nick into ethylenediaminetetraacetic acid-lined tubes (Sarstedt, Nümbrecht, Germany) immediately prior to administering compounds (between 0830 and 0900 hrs). Rats were gavaged with drug or vehicle (4 mL/kg) beginning at 0830 hrs. Thirty minutes later, Intralipid was gavaged at 10 mL/kg to all rats, representing t=−30 min. Again, thirty minutes later, representing time=0 min, all rats were dosed via tail vein with Triton WR-1339 (100 mg/kg and 1 mL/kg) in normal saline. Blood samples were taken at −30 minutes (immediately prior to Intralipid/water dosing), −15 minutes, 0 minutes (immediately prior to Triton WR-1339 administration), as well as at 30, 60, 90, 120, and 240 minutes following administration of Triton WR-1339. Blood samples remained on ice following collection for no longer than 30 min prior to centrifugation. Following centrifugation (10 min, 4° C., 1000×g), plasma was aliquoted for plasma TG analysis. Data are reported as means±SEM. Repeated measures two-way ANOVA was used to assess the significance of the treatment by time interaction in plasma TGs followed by Tukey's post-hoc test to compare differences among the groups. Significance was set at P<0.05 and represented as asterisks in FIG. 3.

A further series has as its system Type V patients. As to the kind of experiment: Open-label clinical study, fasting and postprandial (MTT) triglycerides in Type V patients. It is filed as in vivo, human. How it is done: as §1, §2, §3
(§4) The enrolling criteria for Type V patients is a screening baseline of greater than or equal to 1000 mg/dL fasting triglycerides (TG), and a documented history of heterozygous lipoprotein lipase deficiency. The enrolling criteria for familial chylomicronemia syndrome (FCS) patients is a screening baseline of greater than or equal to 1000 mg/dL fasting triglycerides, and a documented history of homozygous lipoprotein lipase deficiency.
(§5) Patients are seen at a screening visit, and, if found to meet enrollment criteria, are enrolled in the study. At this time they are given instructions to adhere to a very low fat diet (<15 g/day) during the duration of the study, as is the standard of care for this population. Patients are also provided with three days' worth of standardized very low fat meals that are consumed for the three days prior to baseline evaluation (Day—4, Day—3, & Day—2)
(§6) Patients arrive at the study site on Day—1 early morning after an overnight fast for a meal tolerance test (MTT) to evaluate baseline postprandial triglyceride (TG) response. The MTT is a liquid meal of approximately 700 kcal, being 13% fat, 65% carbohydrates and 22% protein. Before the MTT, and at hourly time points through 9 hours, blood samples are taken for triglyceride and other metabolic measurements. Patients are discharged after completing this assessment and return to the study site next morning (Day 1) for a blood collection approximately 24 hours post meal, before the first dose of the study drug (Compound 1 tablets) is administered.
(§7) On the morning of Day 1, patients receive the first dose of Compound 1 at the clinic site. The drug supply for remainder of the 21-day treatment period is provided to the patients, who are instructed to take the drug orally once daily approximately one hour before breakfast for 21 days. Patients are also instructed to continue adherance to a very low fat diet. Patients are then released to home.
(§8) Patients report to the study site once weekly during the treatment period for safety and pharmacokinetics assessment, drug accountability and reviewing the meal plan and food diary. Additionally, the site staff contacts patients by phone, at least once between the clinic visits to check patients' wellbeing and monitor compliance with drug administration and low-fat meals instructions.
(§9) Patients are given pre-prepared very low-fat meals again that are consumed on Day 18, 19 & 20. Patients return to the study site on Day 21 early morning after an overnight fast for a second test meal (MTT) and frequent blood samples collection to evaluate postprandial TG response. Following the MTT and associated Day 21 assessments, patients are discharged to home. They return on the morning of Day 22 for a 24 h blood sample for triglycerides.

In another series the test system is FCS (Type I) patients. The series is described as follows: Open-label clinical study, fasting and postprandial (MTT) triglycerides in FCS patients. It counts as in vivo, human. Here is the method: as §1, §2, §3, §4, §5, §6, §7, §8, §9
Where [2] appears, read: n = 6, 20 mg per day oral for 21 days, MTT.
Setting [3] is: Type I (FCS) patients, n = 6, 20 mg per day oral for 21 days, MTT.
Setting [4] is: Type I (FCS) patients, n = 6, MTT before treatment.

For the compound `O=C([O-])C[C@H]1CC[C@H](c2ccc(-c3ccc(Nc4ccc(C(F)(F)F)nc4)cn3)cc2)CC1.[Na+]` [Compound 1, trans-4-[4-[5-[[6-(trifluoromethyl)-3-pyridinyl]amino]-2-pyridinyl]phenyl]cyclohexane acetic acid, sodium salt], the Safety and tolerability entry in series [1] (all 12 patients, 20 mg daily for 3 weeks) was “safe and well tolerated”. Also, the “Triglyceride levels after 3 weeks of treatment” value in series [1] (both groups of patients (FCS and Type V), 20 mg daily) is “decreased”. In the series with STZ rats, the “Plasma TG at 2 hrs” value was 494.5 ± 54.2 mg/dL, the “Plasma TG at 4 hrs” value is listed as 461.5 ± 52.5 mg/dL and the “Pre-dose TG” value amounted to 346.1 ± 49.6 mg/dL. Besides, the “Plasma TGs at 4 hrs compared between groups” value in the series with STZ rats (10 mpk oral) is “did not differ”. Further, in the series with STZ rats (10 mpk oral, P≦0.001), the “Plasma TGs at 2 hrs compared to vehicle and orlistat groups” value is reported as “significantly lower”. For the same compound, the “Blunting an increase in plasma triglycerides” value in the series on STZ rats (model of severe hypertriglyceridemia) is reported as “effective”. In the series with Triton rat, the “Plasma TG at 90 min” value amounted to 290.2 ± 89.7 mg/dL, the “Plasma TG at 120 min” value amounted to 479.3 ± 123.4 mg/dL and the “Pre-Triton TG” value is 35.6 ± 5.6 mg/dL. For the same compound, the “Rate of absorption of triglycerides arising from a high fat meal” value in the series with Triton rat (conclusion from Triton rat data) was “suppresses”. For the same compound, the “Plasma TG appearance compared to vehicle and orlistat treatments” value in the series with Triton rat (following Intralipid bolus, at 90 and 120 minutes post Triton WR-1339, P≦0.05) is given as “significantly decreased”. Besides, in the series with Type V patients (20 mg daily for 3 weeks), the “Fasting triglycerides decreased by” value came to 23.6% and the “Triglyceride levels relative to the threshold for increased pancreatitis risk (about 1000 mg/dL)” value was “kept well below the threshold”. Also, the Postprandial triglycerides result in the series with Type V patients (20 mg daily for 3 weeks, relative to fasting TG decrease) is listed as “reduced by a similar magnitude”. Also, the “Fasting TG, Mean Δ from Baseline” value in the series on Type V patients (n = 6, 20 mg per day oral for 21 days) was −23.6%. Further, in the series on Type V patients (setting [2]), the “Postprandial Peak TG, Mean Δ from Baseline” value is given as −25.8% and the “Postprandial TG AUC0-9, Mean Δ from Baseline” value was −27.3%. Besides, in the series with Type V patients (n = 6, MTT before treatment), the “Postprandial Peak TG, Mean Baseline” value is 835.2 mg/dL and the “Postprandial TG AUC0-9, Mean Baseline” value was found to be 6873.0 mg·h/dL. Further, the “Fasting TG, Mean Baseline” value in the series on Type V patients (n = 6, before treatment) is 745.8 mg/dL. In the series on FCS (Type I) patients (Type I (FCS) patients, n = 6, 20 mg per day oral for 21 days), the “Fasting TG, Mean Δ from Baseline” value is −38.4%. Also, in the series with FCS (Type I) patients (setting [3]), the “Postprandial Peak TG, Mean Δ from Baseline” value is −36.4% and the “Postprandial TG AUC0-9, Mean Δ from Baseline” value was −35.4%. Moreover, in the series on FCS (Type I) patients (setting [4]), the “Postprandial Peak TG, Mean Baseline” value was determined as 1913.1 mg/dL and the “Postprandial TG AUC0-9, Mean Baseline” value was 15044.5 mg·h/dL. The “Fasting TG, Mean Baseline” value with FCS (Type I) patients (Type I (FCS) patients, n = 6, before treatment) was 1968.0 mg/dL. Further, the “Fasting triglycerides decreased by” value in the series with FCS (Type I) patients (patients with FCS, 20 mg daily for 3 weeks) worked out at 38.4%. In addition, the Postprandial triglycerides entry in the series on FCS (Type I) patients (patients with FCS, 20 mg daily for 3 weeks, relative to fasting TG decrease) is on record as “reduced by a similar magnitude”. In the series on FCS (Type I) patients (patients with FCS, to near the threshold for increased pancreatitis risk (about 1000 mg/dL)), the “Triglyceride levels decreased by” value is on record as “about 40%”.
As to `CCCCCCCCCCC[C@@H](C[C@@H]1OC(=O)[C@H]1CCCCCC)OC(=O)[C@H](CC(C)C)NC=O` [Orlistat, reference compound], in the series on STZ rats, the “Plasma TG at 2 hrs” value turned out to be 891.8 ± 97.8 mg/dL, the “Plasma TG at 4 hrs” value stood at 236.3 ± 37.9 mg/dL and the “Pre-dose TG” value turned out to be 288.4 ± 27.4 mg/dL. Further, in the series on STZ rats (10 mpk oral), the “Plasma TGs at 4 hrs compared between groups” value is “lower than the other 2 groups”. Besides, in the series on Triton rat, the “Plasma TG at 90 min” value is reported as 747.3 ± 203.7 mg/dL, the “Plasma TG at 120 min” value is 984.9 ± 251.7 mg/dL and the “Pre-Triton TG” value was determined as 114.5 ± 13.0 mg/dL.
